Test results reported in the supplement of paper PMC10307832.

Columns and labels:
Assay in all cases: relative viability (nuclei count vs DMSO), 5 days (fraction); higher = more cells survive
Irinotecan + Pemetrexed = compound: CCc1c2c(nc3ccc(OC(=O)N4CCC(N5CCCCC5)CC4)cc13)-c1cc3c(c(=O)n1C2)COC(=O)[C@]3(O)CC [Irinotecan] + Nc1nc2[nH]cc(CCc3ccc(C(=O)N[C@@H](CCC(=O)O)C(=O)O)cc3)c2c(=O)[nH]1 [Pemetrexed] (partner 0.2 µM)
Summary of the method: (§1)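 The day after seeding in 1536-well plates, lung cancer cell lines were treated by pin tool with a single drug, or with a fixed anchor-drug dose together with five library-drug doses (not always all listed) in √10 steps. After 5 days, a combined fix-and-stain solution (final 0.05% Triton X-100, 1% formaldehyde, 1 ug/ml Hoechst) was added. Nuclei counted on 4× images gave relative viability as treated counts over vehicle counts, reported as the median of duplicate plates.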

MK-8033 + Tozasertib = compound: Cn1cc(-c2cnc3ccc4ccc(CS(=O)(=O)NCc5ccccn5)cc4c(=O)c3c2)cn1 [MK-8033] + Cc1cc(Nc2cc(N3CCN(C)CC3)nc(Sc3ccc(NC(=O)C4CC4)cc3)n2)n[nH]1 [Tozasertib] (partner 0.1 µM)
Summary of the method: as §1

MK-8033 + Lapatinib = compound: Cn1cc(-c2cnc3ccc4ccc(CS(=O)(=O)NCc5ccccn5)cc4c(=O)c3c2)cn1 [MK-8033] + CS(=O)(=O)CCNCc1ccc(-c2ccc3ncnc(Nc4ccc(OCc5cccc(F)c5)c(Cl)c4)c3c2)o1 [Lapatinib] (partner 2 µM)
Summary of the method: as §1

MK-8033 + Bortezomib = compound: Cn1cc(-c2cnc3ccc4ccc(CS(=O)(=O)NCc5ccccn5)cc4c(=O)c3c2)cn1 [MK-8033] + CC(C)C[C@H](NC(=O)[C@H](Cc1ccccc1)NC(=O)c1cnccn1)B(O)O [Bortezomib] (partner 0.002 µM)
Summary of the method: as §1

| Cell Line | relative viability (Irinotecan + Pemetrexed; first compound 2 µM) | relative viability (Irinotecan + Pemetrexed; first compound 6.325 µM) | relative viability (Irinotecan + Pemetrexed; first compound 20 µM) | relative viability (MK-8033 + Tozasertib; first compound 0.02 µM) | relative viability (MK-8033 + Tozasertib; first compound 0.06325 µM) | relative viability (MK-8033 + Tozasertib; first compound 0.2 µM) | relative viability (MK-8033 + Tozasertib; first compound 0.6325 µM) | relative viability (MK-8033 + Tozasertib; first compound 2 µM) | relative viability (MK-8033 + Lapatinib; first compound 0.02 µM) | relative viability (MK-8033 + Lapatinib; first compound 0.2 µM) | relative viability (MK-8033 + Lapatinib; first compound 0.6325 µM) | relative viability (MK-8033 + Lapatinib; first compound 2 µM) | relative viability (Irinotecan + Pemetrexed; first compound 0.6325 µM) | relative viability (MK-8033 + Lapatinib; first compound 0.06325 µM) | relative viability (MK-8033 + Bortezomib; first compound 0.02 µM) | relative viability (MK-8033 + Bortezomib; first compound 0.06325 µM) | relative viability (MK-8033 + Bortezomib; first compound 0.2 µM) | relative viability (MK-8033 + Bortezomib; first compound 0.6325 µM) | relative viability (MK-8033 + Bortezomib; first compound 2 µM) |
| --- | --- | --- | --- | --- | --- | --- | --- | --- | --- | --- | --- | --- | --- | --- | --- | --- | --- | --- | --- |
| NCI-H1793 | 0.699 | 0.395 | 0.253 | 0.332 | 0.325 | 0.34 | 0.416 | 0.23 | 0.793 | 0.492 | 0.783 | 0.495 |  |  |  |  |  |  |  |
| NCI-H358 | 0.19 | 0.146 | 0.167 | 0.0969 | 0.0932 | 0.1 | 0.0977 | 0.106 | 0.427 | 0.44 | 0.42 | 0.456 | 0.167 | 0.317 |  |  |  |  |  |
| LK-2 | 0.343 | 0.182 | 0.336 | 0.174 |  | 0.179 | 0.182 | 0.198 | 0.968 | 0.963 | 1.1 | 0.807 | 0.227 | 0.807 |  |  |  |  |  |
| NCI-H1944 | 0.516 | 0.284 | 0.175 | 0.237 | 0.218 | 0.209 | 0.261 | 0.23 | 0.931 | 0.808 | 0.825 | 0.791 | 0.553 |  |  |  |  |  |  |
| NCI-H727 |  |  |  | 0.577 |  | 0.714 | 0.465 | 0.61 | 0.759 | 0.665 | 0.748 | 0.858 |  | 0.72 | 0.873 | 0.62 | 0.882 | 0.993 | 0.857 |
| NCI-H1648 | 0.68 | 0.453 | 0.423 |  | 0.404 | 0.405 |  | 0.426 |  |  |  |  | 0.703 |  |  |  |  |  |  |
| NCI-H1299 |  |  |  |  |  |  |  |  | 0.989 | 0.964 | 0.965 | 0.982 |  | 0.947 | 1.03 | 0.997 | 1.03 | 1.05 | 1 |
| NCI-H1792 | 0.823 | 0.188 | 0.282 |  |  |  |  |  | 1.06 | 0.863 | 0.917 | 0.976 | 0.507 | 0.87 | 1 | 0.96 | 0.966 | 0.525 | 0.954 |
| IA-LM |  |  |  |  |  |  |  |  | 0.682 | 0.66 | 0.633 | 0.773 |  | 0.636 | 0.791 | 0.746 | 0.83 | 0.782 | 0.802 |
| ABC-1 |  |  |  | 0.207 | 0.123 | 0.155 | 0.174 | 0.154 | 1.19 | 0.955 | 1.1 | 1.43 |  | 1.35 | 0.307 | 0.263 | 0.319 | 0.337 | 0.313 |
| SW 900 | 0.538 | 0.36 | 0.406 | 0.583 | 0.645 | 0.51 | 0.615 | 0.341 |  |  |  |  |  |  |  |  |  |  |  |
| NCI-H2342 | 0.807 | 0.845 | 0.461 | 0.571 | 0.475 | 0.485 | 0.377 | 0.53 |  |  |  |  | 0.452 |  |  |  |  |  |  |
| ChaGo-K-1 | 0.232 | 0.236 | 0.239 | 0.216 | 0.227 | 0.224 | 0.218 | 0.206 |  |  |  |  | 0.238 |  | 1.37 | 0.756 | 0.98 | 1.02 | 0.926 |
| A549 |  |  |  |  |  |  |  |  | 0.911 | 0.967 | 0.946 | 1.02 |  | 0.954 |  |  |  |  |  |
